Data: paper PMC6891756, “Synthesis and Biological Evaluation of Novel Aminochalcones as Potential Anticancer and Antimicrobial Agents” (Molecules, 2019)
≈ marks a conversion by molar mass, not a printed value.

How the values were obtained:
HT-29 = assay: SRB antiproliferative assay, HT-29; format: cell-based, human; details: Homo sapiens, HT-29; SRB, 48 h, 1–100 µg·mL^−1; ND = not detected in the tested concentration range
Experimental: (§1) Anticancer activity was evaluated using the sulforhodamine B assay (SRB) on four different human colon cancer cell lines: HT-29, LS180, LoVo and LoVo/DX and green monkey kidney fibroblasts COS7 (ATCC, Manassas, VA, USA). Cell lines HT-29 and COS7 were cultured in α-MEM medium (IIET PAS, Wrocław, Poland), LS180 in OptiMEM medium (IIET PAS), LoVo and LoVo/DX in mixture of α-MEM and OptiMEM medium (1:1 (v:v)). Each culture medium was supplemented with 10% fetal bovine serum, 2 mM glutamine, 100 μg·mL^−1 penicillin, 100 μg·mL^−1 streptomycin and 0.25 μg·mL^−1 amphotericin (all supplements purchased from Gibco (Paisley, UK). Cells were incubated at 37 °C, 5% CO2 in HeraCELL 150i incubator (Thermo Fisher Scientific, Waltham, MA, USA).
(§2) For the SRB assay, cells were seeded onto 96-well plates (Sarstedt, Nümbrecht, Germany) at a density of 5·10^3/well and cultured overnight as described above. Then, the growth medium was gently removed and replaced with fresh medium, supplemented with aminochalcone derivatives in the concentration ranging from 1 µg·mL^−1 to 100 µg·mL^−1. All stock solutions were prepared in DMSO at a concentration of 10 mg·mL^−1. Cells were incubated for 48 h and then the SRB assay was performed as described previously. Each experiment was performed in quadruplicate. The final results were reported as the IC50 values calculated for three independent experiments. Cisplatin (Acros Organics, Waltham, MA, USA) and doxorubicin (Fisher BioReagents, Waltham, MA, USA) were used as positive controls of the test.

[1] = tested on: Alternaria alternata CBS1526; assay: Microbial growth curve screening, A. alternata; format: cell-based; details: 0.1% (w/v); for ∆OD A. alternata: OD at 560 nm, control 1.86; for Lag-phase A. alternata: control 16.5 h
Experimental: (§3) The antimicrobial screening tests were performed on two strains of bacteria: E. coli ATCC10536 and S. aureus DSM799, strain of yeast C. albicans DSM1386 and three strains of fungi: F. linii KB-F1, A. alternata CBS1526 and A. niger DSM1957. All microorganisms were obtained from the collection of the Faculty of Biotechnology and Food Microbiology, Wrocław University of Environmental and Life Sciences. The bacteria were cultured in nutrient broth (Biocorp, Warsaw, Poland), yeast and fungi in YM medium (3 g yeast extract, 3 g malt extract, 5 g bacteriological peptone and 10 g of glucose dissolved in 1 L of distilled water). The tests were carried out in 100-well microtiter plates. To each well 280 μL of culture medium, 10 μL of microorganism suspension and 10 μL of aminochalcone (1–18) dissolved in dimethyl sulfoxide (3% (w/v)) were added. The final concentration of the tested compound (1–18) was 0.1% (w/v). Each experiment were performed in 3 replications. The optical density of the cell suspension was measured on Bioscreen C (Automated Growth Curve Analysis System Lab System, Vantaa, Finland) at 560 nm automatically, at regular intervals of 30 min for 2–3 days. Cell cultures were maintained at 28 °C on a continuous shaker. To prepare the growth curves for each strain, the mean values of the absorbance in a function of time were used. The resulting antimicrobial activity was expressed as the increase of optical density (ΔOD) and was compared to that of the control cultures in the medium supplemented with dimethyl sulfoxide and also with reference substances: oxytetracycline (against bacteria), cycloheximide (against yeast) and nystatin (against fungi) (Sigma Aldrich).

[2] = tested on: Staphylococcus aureus DSM799; assay: MIC evaluation (broth method), S. aureus; format: cell-based; details: 48–72 h, read-out: Minimal inhibitory concentration S. aureus
Experimental: (§4) Sterile 96-well microtiter plates (Sarstedt) with nutrient broth (for bacteria) (Biocorp) or YM medium (for yeast and filamentous fungi) were inoculated with a standardized cell suspension of bacteria and yeast or fungal spores of 10^5 cell·mL^−1, and supplemented with aminochalcones dissolved in DMSO. […] All analysis were conducted in triplicates. The plates were incubated at 30 °C (bacteria and yeast) or 25 °C (filamentous fungi) for 48–72 h. The results were measured with the Spark® Multimode Microplate Reader (Tecan, Männedorf, Switzerland) at a 560 nm wavelength. The minimal inhibitory concentration was defined as the lowest concentration of a tested compound that completely restricted the growth of the microorganism. In order to verify the obtained results, microbial cultures subjected to each concentration of aminochalcone were inoculated onto nutrient agar or YM plates and incubated as described above. The lack of growth on agar plate was a confirmation of the MIC of the tested compound. The resulting MIC values were compared with the reference substances: oxytetracycline (against bacteria), cycloheximide (against yeast) and nystatin (against fungi) (Sigma Aldrich).

LS180 = assay: SRB antiproliferative assay, LS180; format: cell-based, human; details: Homo sapiens, LS180, 48 h, 1–100 µg·mL^−1, ND = not detected in the tested concentration range
Experimental: as §1, §2

Fusarium linii KB-F1 [3] = assay: MIC evaluation (broth method), F. linii; format: cell-based; details: Fusarium, KBF1, 48–72 h, read-out: Minimal inhibitory concentration F. linii
Experimental: as §4

[4] = tested on: Escherichia coli ATCC10536; assay: MIC evaluation (broth method), E. coli; format: cell-based; details: 48–72 h, read-out: Minimal inhibitory concentration E. coli
Experimental: as §4

[5] = tested on: Staphylococcus aureus DSM799; assay: Microbial growth curve screening, S. aureus; format: cell-based; details: 0.1% (w/v); for ∆OD S. aureus: OD at 560 nm, control 1.67
Experimental: as §3

LoVo = assay: SRB antiproliferative assay, LoVo; format: cell-based, human; details: Homo sapiens, LoVo, 48 h, 1–100 µg·mL^−1, ND = not detected in the tested concentration range
Experimental: as §1, §2

[6] = SRB assay, normal fibroblasts COS7; format: cell-based, green monkey; details: green monkey, COS7 kidney fibroblasts (normal cell line), ND = not detected in the tested concentration range
Experimental: as §1, §2

Fusarium linii KB-F1 [7] = assay: Microbial growth curve screening, F. linii; format: cell-based; details: 0.1% (w/v); for ∆OD F. linii: OD at 560 nm, control 1.95
Experimental: as §3

[8] = tested on: Aspergillus niger DSM1957; assay: Microbial growth curve screening, A. niger; format: cell-based; details: 0.1% (w/v); for ∆OD A. niger: OD at 560 nm, control 2.14; for Lag-phase A. niger: control 11.0 h
Experimental: as §3

[9] = tested on: Escherichia coli ATCC10536; assay: Microbial growth curve screening, E. coli; format: cell-based; details: 0.1% (w/v); for ∆OD E. coli: OD at 560 nm, control 1.61
Experimental: as §3

LoVo/DX = assay: SRB antiproliferative assay, LoVo/DX; format: cell-based, human; details: Homo sapiens, LoVo/DX, 48 h, 1–100 µg·mL^−1, ND = not detected in the tested concentration range
Experimental: as §1, §2

Candida albicans DSM1386 [10] = assay: Microbial growth curve screening, C. albicans; format: cell-based; details: 0.1% (w/v); for ∆OD C. albicans: OD at 560 nm, control 1.58; for Lag-phase C. albicans: control 3.0 h
Experimental: as §3

[11] = tested on: Alternaria alternata CBS1526; assay: MIC evaluation (broth method), A. alternata; format: cell-based; details: Alternaria alternata, CBS1526, 48–72 h, read-out: Minimal inhibitory concentration A. alternata
Experimental: as §4

Candida albicans DSM1386 [12] = assay: MIC evaluation (broth method), C. albicans; format: cell-based; details: DSM1386, read-out: Minimal inhibitory concentration C. albicans
Experimental: as §4

Compound	IC50 (HT-29) [mg/L]	∆OD A. alternata [1]	Lag-phase A. alternata [1] [h]	MIC [2] [mg/L]	IC50 (LS180) [mg/L]	MIC (Fusarium linii KB-F1 [3]) [mg/L]	MIC [4] [mg/L]	∆OD S. aureus [5]	IC50 (LoVo) [mg/L]	IC50 at 48 h [6] [mg/L]	∆OD F. linii (Fusarium linii KB-F1 [7])	∆OD A. niger [8]	Lag-phase A. niger [8] [h]	∆OD E. coli [9]	IC50 (LoVo/DX) [mg/L]	∆OD C. albicans (Candida albicans DSM1386 [10])	Lag-phase C. albicans (Candida albicans DSM1386 [10]) [h]	melting point [°C]	also measured
COc1cc(/C=C/C(=O)c2ccccc2N)ccc1OCc1ccccc1 [Compound 16, 2′-Amino-4-benzyloxy-3-methoxychalcone]	4.85 ± 0.08 (≈ 13.5 µM)	0.64	8.5	0.5 (≈ 1.39 µM)	6.64 ± 0.29 (≈ 18.5 µM)	0.5 (≈ 1.39 µM)	0.5 (≈ 1.39 µM)	0	5.77 ± 0.38 (≈ 16.1 µM)	9.02 ± 0.17 (≈ 25.1 µM)	0	0.41	40.5	0.0	4.59 ± 0.21 (≈ 12.8 µM)	0.66	8.5		
Nc1ccc(C(=O)/C=C/c2ccc([N+](=O)[O-])cc2)cc1 [Compound 12, 4′-Amino-4-nitrochalcone]	3.42 ± 0.54 (≈ 12.7 µM)	0.87	13.0	0.25 (≈ 0.932 µM)	4.64 ± 0.54 (≈ 17.3 µM)	1 (≈ 3.73 µM)	0.25 (≈ 0.932 µM)	0.0	1.8 ± 0.1 (≈ 6.71 µM)	3.1 ± 0.5 (≈ 11.6 µM)	0.0			0.0	2 ± 0.12 (≈ 7.46 µM)	0.13	12.0	205 to 207	
CCc1ccc(/C=C/C(=O)c2ccc(N)cc2)cc1 [Compound 6, 4′-Amino-4-ethylchalcone]	3.61 ± 0.21 (≈ 14.4 µM)				5.2 ± 0.3 (≈ 20.7 µM)			0.87	4.26 ± 0.19 (≈ 16.9 µM)	7.16 ± 0.34 (≈ 28.5 µM)	0.40	0.41	36.5	0.16	3.68 ± 0.3 (≈ 14.6 µM)	0.44	9.5	125	Lag-phase S. aureus ([5]; control 2.5 h): 28.0 h; Lag-phase F. linii (Fusarium linii KB-F1 [7]; control 13.5 h): 9.0 h; MIC [11]: 1 mg/L (≈ 3.98 µM); Lag-phase E. coli ([9]; control 4.0 h): 3.5 h
C[C@@H]1C[C@@H]([C@H](O)CC2CC(=O)NC(=O)C2)C(=O)[C@@H](C)C1 [Cycloheximide, reference compound]																0.0			MIC (Candida albicans DSM1386 [12]): 0.5 mg/L (≈ 1.78 µM)
